Source: US20040167092A1, “Medicaments” (priority 2001, published 2004)

Columns and labels:
Type in all cases: in vivo
morphine-induced emesis = experiment: Morphine-induced emesis in the conscious ferret; conditions: morphine 0.5 mg kg-1 s.c., 1 mg kg-1 s.c. 15 minutes before morphine, n=2
cisplatin-induced emesis = experiment: Cisplatin-induced emesis in the conscious ferret; conditions: cisplatin 200 mg m-2 i.p., 1 mg kg-1 s.c. after first emetic episode, n=2
Description: For all the experiments. adult male ferrets, body weight range 1-1.5 kg, were used. Emesis was induced by X-irradiation, morphine and cisplatin. The ferrets were weighted and measured for the calculation of body surface area on the day before the experiment. On the day of the experiment each ferret received an intraperitoneal dose of cisplatin (200 mg m^−2).

radiation-induced emesis = experiment: Radiation-induced (X-irradiation) emesis in the conscious ferret; conditions: for anti-emetic effect with DPCPX, animals affected (in words): two animals; for effect on radiation-induced emesis (in words): s.c. immediately after X-irradiation, conscious ferret
Source text: The effects of a number of A1 agonists (including N-(3-fluoro4-hydroxy-phenyl)-5′-O-methyl-adenosine and N-(4-hydroxy-phenyl)-5′-O-methyl-adenosine) and an antagonist, 1,3-dipropyl-8-cyclopentylxanthine (DPCPX), were investigated for anti-emetic action against radiaton-induced emesis in the conscious ferret. In addition DPCPX was used in an attempt to block the anti- emetic effects of the partial agonist, N-(3-fluoro-4hydroxy-phenyl)-5′-O-methyl-adenosine, the structure of which is indicated below. [drawing 4]
For all the experiments. adult male ferrets, body weight range 1-1.5 kg, were used. Emesis was induced by X-irradiation, morphine and cisplatin.
The ferrets were weighed on the day before the experiment. On the day of the experiment each ferret received 2Gy (200 Rad) whole body X-irradiation, administered over a 5 minute period. The A1 receptor agonists, partial agonists or antagonist were administered via the subcutaneous route immediatelv after X-irradiation (i.e. approximately 25 minutes before the onset of emesis). When investigating the effects of the A1 receptor antagonist, DPCPX, on the partial agonist N-(3-fluoro4-hydroxy-phenyl)-5′-O-methyl-adenosine, either both compounds were administered simultaneously immediately after X-irradiation, or the DPCPX was given as a 15 minute pre-treatment.

SMILES	% inhibition of retching (morphine-induced emesis; 1h) [%]	% inhibition of retching (morphine-induced emesis; 2h) [%]	% inhibition of retching (cisplatin-induced emesis; 1h) [%]	% inhibition of retching (cisplatin-induced emesis; 2h) [%]	% inhibition of retching (cisplatin-induced emesis; 7h) [%]	% inhibition of retching (radiation-induced emesis; 2Gy whole body X-irradiation, 1.0 mg kg-1 s.c. immediately after irradiation, observed 2 hours, n=2) [%]	anti-emetic effect with DPCPX, animals affected (in words) (radiation-induced emesis; DPCPX 3 mg kg-1 s.c., 15 minute pre-treatment)	anti-emetic effect with DPCPX, animals affected (in words) (radiation-induced emesis; DPCPX 1 mgkg-1 s.c. administered simultaneously)	reversal of the anti-emetic effect by the A1 receptor antagonist DPCPX (in words) (radiation-induced emesis; X-irradiation, addition of DPCPX)	effect on radiation-induced emesis (in words) (radiation-induced emesis)
COC[C@H]1O[C@@H](n2cnc3c(Nc4ccc(O)c(F)c4)ncnc32)[C@H](O)[C@@H]1O [N-(3-fluoro-4-hydroxyphenyl)-5′-O-methyl-adenosine]	100	100	100	67	43	100	anti-emetic effect in both animals was reduced	anti-emetic effect in only one of the two animals tested was reduced	partially reversed	completely inhibited emesis
COC[C@H]1O[C@@H](n2cnc3c(Nc4ccc(O)cc4)ncnc32)[C@H](O)[C@@H]1O [N-(4-hydroxyphenyl)-5′-O-methyl-adenosine]	–	–	–	–	–	–	–	–	–	completely inhibited emesis
